Test results published in patent US6696488B2, “(Hydroxyethyl)ureas as inhibitors of alzheimer's β-amyloid production” (The Brigham and Women's Hospital, Inc., priority 2000, dated 2004).

Legend:
Aβ42 production = assay: Inhibition of Aβ42 production in APP-transfected cells, ELISA (Example 2); type: cell-based; conditions: 4 hours, compared with total Aβ, FIG. 2
Description: (§1) Cell Lines, Compound Treatments, and ELISAs. Cell lines were Chinese hamster ovary (CHO) and SK-N-SH human neuroblastoma cells stably transfected with the 751- or 695-amino acid splicing variants of APP, respectively, and the neo gene, and human embryonic kidney (HEK) 293 cells carrying the same genes (APP695 plus neo) but with the K595N/M596L (“Swedish”) double mutation of APP. Xia W et al., J Biol Chem 272:7977-7982 (1997); Citron M et al., Proc Natl Acad Sci USA 93:13170-13175 (1996). Cells were grown to confluence in Dulbecco's modified Eagle's medium containing 200 μg/ml G418 (Gibco BRL). Stock concentrations of the (hydroxyethyl)urea compounds of the invention in DMSO were added to media to reach the final concentrations with 1% DMSO. Positive controls contained 1% DMSO alone. […] The reporter antibody was detected using 3,3′,5,5′-tetramethylbenzidine (Pierce), measuring at 455 nm for calculating Aβ levels and at 595 nm for normalization.
(§2) Compound III-20 (shown above) or compound III-24 (identical to III-20 except R4 is L-phenylalanine O-methyl ester) was added over a range of concentrations (0.1-100 μM) to APP-transfected cells in culture as described. […] After 4 hours in culture, supernatants from test and control cultures were assayed by ELISA specific for Aβ peptides, and results were analyzed as percent total or specific Aβ produced compared to control.

[1] = test system: total Aβ peptide production; assay: Inhibition of total Aβ peptide production in APP-transfected cells, ELISA (Example 2); type: cell-based; conditions: 4 hours in culture, FIG. 1, read-out: concentration for 50 percent inhibition of total Aβ peptide production
Description: as §1, §2

[2] = test system: Aβ production in APP751-plus neo-transfected CHO cells; assay: Inhibition of Aβ production in APP751-plus neo-transfected CHO cells, ELISA (Example 3); type: cell-based, Chinese hamster; conditions: Cricetulus griseus, 4 hours, 0.005 to 100 μM, 1% DMSO
Description: Cell Lines, Compound Treatments, and ELISAs. Cell lines were Chinese hamster ovary (CHO) and SK-N-SH human neuroblastoma cells stably transfected with the 751- or 695-amino acid splicing variants of APP, respectively, and the neo gene, and human embryonic kidney (HEK) 293 cells carrying the same genes (APP695 plus neo) but with the K595N/M596L (“Swedish”) double mutation of APP. Xia W et al., J Biol Chem 272:7977-7982 (1997); Citron M et al., Proc Natl Acad Sci USA 93:13170-13175 (1996). Cells were grown to confluence in Dulbecco's modified Eagle's medium containing 200 μg/ml G418 (Gibco BRL). Stock concentrations of the (hydroxyethyl)urea compounds of the invention in DMSO were added to media to reach the final concentrations with 1% DMSO. Positive controls contained 1% DMSO alone. […] The reporter antibody was detected using 3,3′,5,5′-tetramethylbenzidine (Pierce), measuring at 455 nm for calculating Aβ levels and at 595 nm for normalization. […]
Transfected CHO cells were prepared and maintained as described in Example 2. […] Results were plotted as percent control Aβ produced versus (hydroxyethyl)urea compound concentration (μM), and (hydroxyethyl)urea compound concentrations at which production was inhibited by 50 percent (IC50) were determined.

IC50 [1]: ~1000 nM
SMILES: COC(=O)[C@H](CC(C)C)NC(=O)[C@H](CC(C)C)NC(=O)N(Cc1ccccc1)C[C@@H](O)[C@H](Cc1ccccc1)NC(=O)OC(C)(C)C [FΨFLL]
inhibitory effect on the production of Aβ42 (Aβ42 production): closely followed the inhibition by compound III-20 of total Aβ production
IC50 [2]: 500 nM
